In ChEMBL document CHEMBL4311942, “Design of Trp-Rich Dodecapeptides with Broad-Spectrum Antimicrobial Potency and Membrane-Disruptive Mechanism” (J Med Chem, 2019):
≈ marks a conversion by molar mass, not a printed value. Where a SMILES comes first, the peptide text is derived from it.

How the values were obtained:
Staphylococcus aureus [1] = test: Antibacterial activity against Staphylococcus aureus ATCC 25923 incubated for 18 to 24 hrs by broth microdilution method; format: functional
Staphylococcus aureus [2] = test: Antibacterial activity against Staphylococcus aureus ATCC 29213 incubated for 18 to 24 hrs by broth microdilution method; format: functional
Salmonella typhimurium = test: Antibacterial activity against Salmonella enterica serovar typhimurium C77-31 incubated for 18 to 24 hrs by broth microdilution method; format: functional, Salmonella enterica subsp. enterica serovar Typhimurium
Escherichia coli [3] = test: Antibacterial activity against Escherichia coli UB1005 incubated for 18 to 24 hrs by broth microdilution method; format: functional
Escherichia coli [4] = test: Antibacterial activity against Escherichia coli ATCC 25922 incubated for 18 to 24 hrs by broth microdilution method; format: functional
[5] = system: Staphylococcus epidermidis; test: Antibacterial activity against Staphylococcus epidermidis ATCC 12228 incubated for 18 to 24 hrs by broth microdilution method; format: functional
Escherichia coli [6] = test: Antibacterial activity against Escherichia coli 20411 clinical isolate incubated for 18 to 24 hrs by broth microdilution method; format: functional
Acinetobacter baumannii [7] = test: Antibacterial activity against Acinetobacter baumannii AB1901 clinical isolate incubated for 18 to 24 hrs by broth microdilution method; format: functional
Acinetobacter baumannii [8] = test: Antibacterial activity against Acinetobacter baumannii AB1902 clinical isolate incubated for 18 to 24 hrs by broth microdilution method; format: functional
Pseudomonas aeruginosa = test: Antibacterial activity against Pseudomonas aeruginosa 25349 clinical isolate incubated for 18 to 24 hrs by broth microdilution method; format: functional
Staphylococcus aureus [9] = test: Antibacterial activity against Staphylococcus aureus 11011 incubated for 18 to 24 hrs by broth microdilution method; format: functional
Erythrocyte = test: Haemolytic activity in human erythrocytes assessed as lowest concentration causing 5% hemolysis after 1 hr; format: ADME, cell-based
[10] = Therapeutic index, ratio of MHC for human RBC to geometric mean of peptide MIC for Escherichia coli ATCC 25922; format: toxicity; conditions: pooled result: one value given for 6 cell lines, strains, targets or settings, read-out: TI
[11] = Cytotoxicity against mouse RAW264.7 cells assessed as cell survival at < 32 uM after 24 hrs by MTT assay; format: cell-based; conditions: read-out: Activity

Row | SMILES | MIC (Staphylococcus aureus [1]) | MIC (Staphylococcus aureus [2]) | MIC (Salmonella typhimurium) | MIC (Escherichia coli [3]) | MIC (Escherichia coli [4]) | MIC [5] | MIC (Escherichia coli [6]) | MIC (Acinetobacter baumannii [7]) | MIC (Acinetobacter baumannii [8]) | MIC (Pseudomonas aeruginosa) | MIC (Staphylococcus aureus [9]) | MHC (Erythrocyte) | selectivity ratio [10] | viability at 24 h [11]
1 | CN[C@H](CC(C)C)C(=O)N[C@H]1C(=O)N[C@@H](CC(N)=O)C(=O)N[C@H]2C(=O)N[C@H]3C(=O)N[C@H](C(=O)N[C@H](C(=O)O)c4cc(O)cc(O)c4-c4cc3ccc4O)[C@H](O)c3ccc(c(Cl)c3)Oc3cc2cc(c3O[C@@H]2O[C@H](CO)[C@@H](O)[C@H](O)[C@H]2O[C@H]2C[C@](C)(N)[C@H](O)[C@H](C)O2)Oc2ccc(cc2Cl)[C@H]1O [VANCOMYCIN] | 0.5 µM (≈ 0.725 µg/mL) | 0.5 µM (≈ 0.725 µg/mL) | 128 µM (≈ 186 µg/mL) | 128 µM (≈ 186 µg/mL) | 128 µM (≈ 186 µg/mL) | 0.5 µM (≈ 0.725 µg/mL) | 64 µM (≈ 92.8 µg/mL) | > 128 µM | > 128 µM | > 128 µM | 0.25 µM (≈ 0.362 µg/mL) | – | – | –
2 | CC[C@H](C)[C@H](NC(=O)[C@H](CCCNC(=N)N)NC(=O)[C@H](Cc1c[nH]c2ccccc12)NC(=O)[C@H](CCCNC(=N)N)NC(=O)[C@@H](NC(=O)[C@H](CCCCN)NC(=O)[C@H](Cc1c[nH]c2ccccc12)NC(=O)[C@H](CCCNC(=N)N)NC(=O)[C@@H](NC(=O)[C@H](CCCNC(=N)N)NC(=O)[C@@H](N)Cc1c[nH]c2ccccc12)[C@@H](C)CC)[C@@H](C)O)C(=O)N[C@@H](CCCCN)C(N)=O (H-WRIRWKTRWRIK-NH2) | 2 µM (≈ 3.57 µg/mL) | 2 µM (≈ 3.57 µg/mL) | 2 µM (≈ 3.57 µg/mL) | 2 µM (≈ 3.57 µg/mL) | 4 µM (≈ 7.14 µg/mL) | 2 µM (≈ 3.57 µg/mL) | 2 µM (≈ 3.57 µg/mL) | 2 µM (≈ 3.57 µg/mL) | 2 µM (≈ 3.57 µg/mL) | 8 µM (≈ 14.3 µg/mL) | 2 µM (≈ 3.57 µg/mL) | > 128 µM | 114 | > 90%
3 | CC(C)C[C@H](NC(=O)[C@H](CCCNC(=N)N)NC(=O)[C@H](Cc1c[nH]c2ccccc12)NC(=O)[C@H](CCCNC(=N)N)NC(=O)[C@@H](NC(=O)[C@H](CCCNC(=N)N)NC(=O)[C@H](Cc1c[nH]c2ccccc12)NC(=O)[C@H](CCCNC(=N)N)NC(=O)[C@H](CC(C)C)NC(=O)[C@H](CCCNC(=N)N)NC(=O)[C@@H](N)Cc1c[nH]c2ccccc12)[C@@H](C)O)C(=O)N[C@@H](CCCNC(=N)N)C(N)=O (H-WRLRWRTRWRLR-NH2) | 2 µM (≈ 3.68 µg/mL) | 2 µM (≈ 3.68 µg/mL) | 4 µM (≈ 7.36 µg/mL) | 4 µM (≈ 7.36 µg/mL) | 4 µM (≈ 7.36 µg/mL) | 2 µM (≈ 3.68 µg/mL) | 2 µM (≈ 3.68 µg/mL) | 4 µM (≈ 7.36 µg/mL) | 4 µM (≈ 7.36 µg/mL) | 16 µM (≈ 29.4 µg/mL) | 2 µM (≈ 3.68 µg/mL) | > 128 µM | 90.5 | > 90%
4 | CC[C@H]1OC(=O)[C@H](C)[C@@H](O[C@H]2C[C@@](C)(OC)[C@@H](O)[C@H](C)O2)[C@H](C)[C@@H](O[C@@H]2O[C@H](C)C[C@H](N(C)C)[C@H]2O)[C@](C)(O)C[C@@H](C)C(=O)[C@H](C)[C@@H](O)[C@]1(C)O [ERYTHROMYCIN] | 0.5 µM (≈ 0.367 µg/mL) | 0.5 µM (≈ 0.367 µg/mL) | 32 µM (≈ 23.5 µg/mL) | 32 µM (≈ 23.5 µg/mL) | 32 µM (≈ 23.5 µg/mL) | 0.25 µM (≈ 0.183 µg/mL) | 64 µM (≈ 47 µg/mL) | > 128 µM | > 128 µM | 128 µM (≈ 93.9 µg/mL) | 1 µM (≈ 0.734 µg/mL) | – | – | –
5 | C[C@@H](O)[C@H](NC(=O)[C@H](CCCNC(=N)N)NC(=O)[C@H](Cc1c[nH]c2ccccc12)NC(=O)[C@H](CCCNC(=N)N)NC(=O)[C@@H](NC(=O)[C@H](CCCNC(=N)N)NC(=O)[C@H](Cc1c[nH]c2ccccc12)NC(=O)[C@H](CCCNC(=N)N)NC(=O)[C@@H](NC(=O)[C@H](CCCNC(=N)N)NC(=O)[C@@H](N)Cc1c[nH]c2ccccc12)[C@@H](C)O)[C@@H](C)O)C(=O)N[C@@H](CCCNC(=N)N)C(N)=O (H-WRTRWRTRWRTR-NH2) | 8 µM (≈ 14.5 µg/mL) | 4 µM (≈ 7.26 µg/mL) | 4 µM (≈ 7.26 µg/mL) | 4 µM (≈ 7.26 µg/mL) | 4 µM (≈ 7.26 µg/mL) | 8 µM (≈ 14.5 µg/mL) | 2 µM (≈ 3.63 µg/mL) | 32 µM (≈ 58.1 µg/mL) | 32 µM (≈ 58.1 µg/mL) | > 64 µM | 4 µM (≈ 7.26 µg/mL) | > 128 µM | 50.8 | > 90%

The remaining compounds from weak to strong by MIC (Staphylococcus aureus [1]), led by results:

Row | MIC (Staphylococcus aureus [1]) | MIC (Staphylococcus aureus [2]) | MIC (Salmonella typhimurium) | MIC (Escherichia coli [3]) | MIC (Escherichia coli [4]) | MIC [5] | MIC (Escherichia coli [6]) | MIC (Acinetobacter baumannii [7]) | MIC (Acinetobacter baumannii [8]) | MIC (Pseudomonas aeruginosa) | MIC (Staphylococcus aureus [9]) | SMILES | MHC (Erythrocyte) | selectivity ratio [10] | viability at 24 h [11]
6 | 2 µM (≈ 3.51 µg/mL) | 1 µM (≈ 1.75 µg/mL) | 2 µM (≈ 3.51 µg/mL) | 2 µM (≈ 3.51 µg/mL) | 4 µM (≈ 7.02 µg/mL) | 2 µM (≈ 3.51 µg/mL) | 1 µM (≈ 1.75 µg/mL) | 2 µM (≈ 3.51 µg/mL) | 4 µM (≈ 7.02 µg/mL) | 4 µM (≈ 7.02 µg/mL) | 2 µM (≈ 3.51 µg/mL) | CC(C)[C@H](NC(=O)[C@H](CCCNC(=N)N)NC(=O)[C@H](Cc1c[nH]c2ccccc12)NC(=O)[C@H](CCCNC(=N)N)NC(=O)[C@@H](NC(=O)[C@H](CCCCN)NC(=O)[C@H](Cc1c[nH]c2ccccc12)NC(=O)[C@H](CCCNC(=N)N)NC(=O)[C@@H](NC(=O)[C@H](CCCNC(=N)N)NC(=O)[C@@H](N)Cc1c[nH]c2ccccc12)C(C)C)C(C)C)C(=O)N[C@@H](CCCCN)C(N)=O (H-WRVRWKVRWRVK-NH2) | > 128 µM | 128 | > 90%
7 | 2 µM (≈ 3.28 µg/mL) | 1 µM (≈ 1.64 µg/mL) | 2 µM (≈ 3.28 µg/mL) | 2 µM (≈ 3.28 µg/mL) | 2 µM (≈ 3.28 µg/mL) | 2 µM (≈ 3.28 µg/mL) | 1 µM (≈ 1.64 µg/mL) | 2 µM (≈ 3.28 µg/mL) | 1 µM (≈ 1.64 µg/mL) | 4 µM (≈ 6.57 µg/mL) | 2 µM (≈ 3.28 µg/mL) | CC(C)[C@H](NC(=O)[C@H](CCCCN)NC(=O)[C@H](Cc1c[nH]c2ccccc12)NC(=O)[C@H](CCCCN)NC(=O)[C@@H](NC(=O)[C@H](CCCCN)NC(=O)[C@H](Cc1c[nH]c2ccccc12)NC(=O)[C@H](CCCCN)NC(=O)[C@@H](NC(=O)[C@H](CCCCN)NC(=O)[C@@H](N)Cc1c[nH]c2ccccc12)C(C)C)C(C)C)C(=O)N[C@@H](CCCCN)C(N)=O (H-WKVKWKVKWKVK-NH2) | > 128 µM | 144 | > 90%
8 | 2 µM (≈ 3.7 µg/mL) | 1 µM (≈ 1.85 µg/mL) | 2 µM (≈ 3.7 µg/mL) | 2 µM (≈ 3.7 µg/mL) | 4 µM (≈ 7.41 µg/mL) | 2 µM (≈ 3.7 µg/mL) | 2 µM (≈ 3.7 µg/mL) | 2 µM (≈ 3.7 µg/mL) | 4 µM (≈ 7.41 µg/mL) | 4 µM (≈ 7.41 µg/mL) | 1 µM (≈ 1.85 µg/mL) | CC(C)C[C@H](NC(=O)[C@H](CCCNC(=N)N)NC(=O)[C@H](Cc1c[nH]c2ccccc12)NC(=O)[C@H](CCCNC(=N)N)NC(=O)[C@H](CC(C)C)NC(=O)[C@H](CCCNC(=N)N)NC(=O)[C@H](Cc1c[nH]c2ccccc12)NC(=O)[C@H](CCCNC(=N)N)NC(=O)[C@H](CC(C)C)NC(=O)[C@H](CCCNC(=N)N)NC(=O)[C@@H](N)Cc1c[nH]c2ccccc12)C(=O)N[C@@H](CCCNC(=N)N)C(N)=O (H-WRLRWRLRWRLR-NH2) | > 128 µM | 128 | > 90%
9 | 1 µM (≈ 1.95 µg/mL) | 1 µM (≈ 1.95 µg/mL) | 2 µM (≈ 3.91 µg/mL) | 4 µM (≈ 7.82 µg/mL) | 8 µM (≈ 15.6 µg/mL) | 2 µM (≈ 3.91 µg/mL) | 4 µM (≈ 7.82 µg/mL) | 2 µM (≈ 3.91 µg/mL) | 2 µM (≈ 3.91 µg/mL) | 8 µM (≈ 15.6 µg/mL) | 2 µM (≈ 3.91 µg/mL) | N=C(N)NCCC[C@H](NC(=O)[C@H](Cc1ccccc1)NC(=O)[C@H](CCCNC(=N)N)NC(=O)[C@H](Cc1c[nH]c2ccccc12)NC(=O)[C@H](CCCNC(=N)N)NC(=O)[C@H](Cc1ccccc1)NC(=O)[C@H](CCCNC(=N)N)NC(=O)[C@H](Cc1c[nH]c2ccccc12)NC(=O)[C@H](CCCNC(=N)N)NC(=O)[C@H](Cc1ccccc1)NC(=O)[C@H](CCCNC(=N)N)NC(=O)[C@@H](N)Cc1c[nH]c2ccccc12)C(N)=O (H-WRFRWRFRWRFR-NH2) | 64 µM | 28.6 | > 90%
